Key:
crabgrass = test: Test A pre-/postemergence greenhouse test; assay type: in vivo, Digitaria sanguinalis; conditions: for Plant response rating, Crabgrass, Large: 0 to 100 scale where 0 is no effect and 100 is complete control; for Crabgrass, Large plant response rating: 0 to 100 scale
Method in brief: (§1)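 Untreated controls served as the reference for visual injury ratings taken about ten days after spraying. The non-phytotoxic solvent/surfactant formulation was applied preemergence to seeded loam and sand and postemergence to plants two to ten cm high.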

morningglory = test: Test A pre-/postemergence greenhouse test; assay type: in vivo, Ipomoea spp.; conditions: for Plant response rating, Morningglory: 0 to 100 scale where 0 is no effect and 100 is complete control; for Morningglory plant response rating: 0 to 100 scale
Method in brief: as §1

redroot pigweed = test: Test A pre-/postemergence greenhouse test; assay type: in vivo, Amaranthus retroflexus; conditions: for Plant response rating, Pigweed: 0 to 100 scale where 0 is no effect and 100 is complete control; for Pigweed plant response rating: 0 to 100 scale
Method in brief: as §1

blackgrass = test: Test C pre-/postemergence test; assay type: in vivo, Alopecurus myosuroides
Excerpt: (§2) Seeds of plant species selected from blackgrass (Alopecurus myosuroides), downy brome (Bromus tectorum), green foxtail (Setaria viridis), Italian ryegrass (Lolium multiflorum), wheat (Triticum aestivum), wild oat (Avena fatua), catchweed bedstraw (Galium aparine), Russian thistle (Salsola kali), […] (Cynodon dactylon), Surinam grass (Brachiaria decumbens), cocklebur (Xanthium strumarium), corn (Zea mays), crabgrass (Digitaria sanguinalis), woolly cupgrass (Eriochloa villosa), giant foxtail (Setaria faberii), Goosegrass (Eleusin indica), johnsongrass (Sorghum halepense), kochia (Kochia scoparia), lambsquarters (Chenopodium album), morningglory (Ipomoea coccinea), eastern black nightshade (Solanum ptycanthum), yellow nutsedge (Cyperus esculentus), pigweed (Amaranthus retroflexus), common ragweed (Ambrosia elation), soybean (Glycine max), common (oilseed) sunflower (Helianthus annuus), and velvetleaf (Abutilon theophrasti) were planted and treated preemergence with test chemicals formulated in a non-phytotoxic solvent mixture which included a surfactant. At the same time, plants selected from these crop and weed species and also winter barley (Hordeum vulgare), canarygrass (Phalaris minor), and chickweed (Stellaria media) were treated with postemergence applications of some of the test chemicals formulated in the same manner. Plants ranged in height from 2 to 18 cm (1- to 4-leaf stage) for postemergence treatments. […] At time of treatment, test pots were flooded to 3 cm above the soil surface, treated by application of test compounds directly to the paddy water, and then maintained at that water depth for the duration of the test. […] A dash (-) response means no test result.

green foxtail = test: Test C pre-/postemergence test; assay type: in vivo, Setaria viridis
Excerpt: as §2

Italian ryegrass = test: Test C pre-/postemergence test; assay type: in vivo, Lolium multiflorum
Excerpt: as §2

wheat = test: Test C pre-/postemergence test; assay type: in vivo, Triticum aestivum
Excerpt: as §2

wild oat = test: Test C pre-/postemergence test; assay type: in vivo, Avena fatua
Excerpt: as §2

corn = test: Test C pre-/postemergence test; assay type: in vivo, Zea mays; conditions: for Plant response rating, Corn: scale 0 to 100, 0 no effect, 100 complete control
Excerpt: as §2

woolly cupgrass = test: Test C pre-/postemergence test; assay type: in vivo, Eriochloa villosa; conditions: for Plant response rating, Cupgrass, Woolly: scale 0 to 100, 0 no effect, 100 complete control
Excerpt: as §2

Goosegrass = test: Test C pre-/postemergence test; assay type: in vivo, Eleusin indica
Excerpt: as §2

yellow nutsedge = test: Test C pre-/postemergence test; assay type: in vivo, Cyperus esculentus
Excerpt: as §2

common ragweed = test: Test C pre-/postemergence test; assay type: in vivo, Ambrosia elation
Excerpt: as §2

[1] = system: common (oilseed) sunflower; test: Test C pre-/postemergence test; assay type: in vivo, Helianthus annuus
Excerpt: as §2

umbrella sedge = test: Test C flooded paddy test; assay type: in vivo, Cyperus difformis; conditions: Flood
Method in brief: (§3)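 Compound was added to standing water 3 cm above soil, flood maintained, and plants held in a greenhouse before visual scoring against controls at 13 to 15 days.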

duck salad = test: Test C flooded paddy test; assay type: in vivo, Heteranthera limosa; conditions: Flood
Method in brief: as §3

[2] = Postemergence, 500 g ai/ha, 0 is no effect, 100 is complete control
[3] = Preemergence, 125 g ai/ha, 0 no effect, 100 complete control
[4] = 62 g ai/ha, Preemergence, scale 0 to 100
[5] = 125 g ai/ha, preemergence, scale 0 (no effect) to 100 (complete control)
[6] = Preemergence, 31 g ai/ha, scale 0 to 100 (0 no effect, 100 complete control)
[7] = preemergence, 250 g ai/ha, scale 0 (no effect) to 100 (complete control)
[8] = 62 g ai/ha, scale 0 to 100 (0 no effect, 100 complete control)
[9] = 250 g ai/ha, scale 0 to 100, 0 no effect, 100 complete control, 13 to 15 days
[10] = Postemergence, 62 g ai/ha, scale 0 to 100, 0 no effect, 100 complete control
[11] = Postemergence, 125 g ai/ha, scale 0 to 100, 0 no effect, 100 complete control
[12] = Postemergence, 250 g ai/ha, scale 0 to 100, 0 no effect, 100 complete control

## CCn1nc(C(F)(F)F)c(C[S+]([O-])c2cc(C)cc[n+]2[O-])c1OCC(F)(F)F (racemic) [Compound 66]
crabgrass; Postemergence, 125 g ai/ha
  Plant response rating, Crabgrass, Large: 50
crabgrass; [2]
  Crabgrass, Large plant response rating: 90
crabgrass; [3]
  Crabgrass, Large plant response rating: 80
crabgrass; Preemergence, 500 g ai/ha
  Plant response rating, Crabgrass, Large: 100
morningglory; Postemergence, 125 g ai/ha
  Plant response rating, Morningglory: 60
morningglory; [2]
  Morningglory plant response rating: 90
morningglory; [3]
  Morningglory plant response rating: 70
morningglory; Preemergence, 500 g ai/ha
  Plant response rating, Morningglory: 100
Redroot pigweed; Postemergence, 125 g ai/ha
  Plant response rating, Pigweed: 60
Redroot pigweed; [2]
  Pigweed plant response rating: 90
Redroot pigweed; [3]
  Pigweed plant response rating: 100
Redroot pigweed; Preemergence, 500 g ai/ha
  Plant response rating, Pigweed: 100
blackgrass; [4]
  Blackgrass plant response rating: 70
blackgrass; [5]
  Blackgrass plant response rating: 100
blackgrass; [6]
  Plant response rating, Blackgrass: 50
blackgrass; [7]
  Blackgrass plant response rating: 100
Green foxtail; [4]
  Foxtail, Green plant response rating: 100
Green foxtail; [5]
  Foxtail, Green plant response rating: 100
Green foxtail; [6]
  Plant response rating, Foxtail, Green: 85
Green foxtail; [7]
  Foxtail, Green plant response rating: 100
Italian ryegrass; [4]
  Ryegrass, Italian plant response rating: 90
Italian ryegrass; [5]
  Ryegrass, Italian plant response rating: 100
Italian ryegrass; [6]
  Plant response rating, Ryegrass, Italian: 55
wheat; [4]
  Wheat plant response rating: 85
wheat; [5]
  Wheat plant response rating: 98
wheat; [6]
  Plant response rating, Wheat: 0
wheat; [7]
  Wheat plant response rating: 100
Wild oat; [4]
  Oat, Wild plant response rating: 85
Wild oat; [5]
  Oat, Wild plant response rating: 95
Wild oat; [6]
  Plant response rating, Oat, Wild: 85
Wild oat; [7]
  Oat, Wild plant response rating: 95
corn; [4]
  Corn plant response rating: 80
corn; [5]
  Corn plant response rating: 100
corn; [7]
  Corn plant response rating: 100
Woolly cupgrass; [4]
  Cupgrass, Woolly plant response rating: 85
Woolly cupgrass; [5]
  Cupgrass, Woolly plant response rating: 100
Woolly cupgrass; [7]
  Cupgrass, Woolly plant response rating: 100
Goosegrass; [4]
  Goosegrass plant response rating: 100
Goosegrass; [5]
  Goosegrass plant response rating: 100
Goosegrass; [6]
  Plant response rating, Goosegrass: 100
Goosegrass; [7]
  Goosegrass plant response rating: 100
Yellow nutsedge; [4]
  Nutsedge, Yellow plant response rating: 30
Yellow nutsedge; [5]
  Nutsedge, Yellow plant response rating: 40
Yellow nutsedge; [6]
  Plant response rating, Nutsedge, Yellow: 30
Yellow nutsedge; [7]
  Nutsedge, Yellow plant response rating: 50
Common ragweed; [4]
  Ragweed plant response rating: 100
Common ragweed; [6]
  Plant response rating, Ragweed: 100
Common ragweed; [7]
  Ragweed plant response rating: 100
[1]; [4]
  Sunflower plant response rating: 80
[1]; [5]
  Sunflower plant response rating: 80
[1]; [6]
  Plant response rating, Sunflower: 30
[1]; [7]
  Sunflower plant response rating: 98
Umbrella sedge; [8]
  Plant response rating, Sedge, Umbrella: 85
Umbrella sedge; [9]
  Plant response rating, Sedge, Umbrella: 100
Duck salad; [8]
  Plant response rating, Ducksalad: 70
Duck salad; [9]
  Plant response rating, Ducksalad: 90

## Cn1nc(C(F)(F)F)c(C[S+]([O-])c2cccc[n+]2[O-])c1OCC(F)(F)C(F)(F)F (stereo not shown) [Compound 78]
crabgrass; Postemergence, 125 g ai/ha
  Plant response rating, Crabgrass, Large: 70
crabgrass; [2]
  Crabgrass, Large plant response rating: 80
crabgrass; [3]
  Crabgrass, Large plant response rating: 30
crabgrass; Preemergence, 500 g ai/ha
  Plant response rating, Crabgrass, Large: 100
morningglory; Postemergence, 125 g ai/ha
  Plant response rating, Morningglory: 30
morningglory; [2]
  Morningglory plant response rating: 60
morningglory; [3]
  Morningglory plant response rating: 20
morningglory; Preemergence, 500 g ai/ha
  Plant response rating, Morningglory: 80
Redroot pigweed; Postemergence, 125 g ai/ha
  Plant response rating, Pigweed: 50
Redroot pigweed; [2]
  Pigweed plant response rating: 60
Redroot pigweed; [3]
  Pigweed plant response rating: 10
Redroot pigweed; Preemergence, 500 g ai/ha
  Plant response rating, Pigweed: 100
blackgrass; Postemergence, 31 g ai/ha
  Plant response rating (0 to 100), Blackgrass: 0
blackgrass; [10]
  Plant response rating, Blackgrass: 0
blackgrass; [11]
  Plant response rating, Blackgrass: 50
blackgrass; [12]
  Plant response rating, Blackgrass: 100
Green foxtail; Postemergence, 31 g ai/ha
  Plant response rating (0 to 100), Foxtail, Green: 0
Green foxtail; [10]
  Plant response rating, Foxtail, Green: 0
Green foxtail; [11]
  Plant response rating, Foxtail, Green: 45
Green foxtail; [12]
  Plant response rating, Foxtail, Green: 80
Italian ryegrass; Postemergence, 31 g ai/ha
  Plant response rating (0 to 100), Ryegrass, Italian: 0
Italian ryegrass; Postemergence, 62 g ai/ha
  Plant response rating (0 to 100), Ryegrass, Italian: 0
Italian ryegrass; [11]
  Plant response rating, Ryegrass, Italian: 30
Italian ryegrass; [12]
  Plant response rating, Ryegrass, Italian: 30
wheat; Postemergence, 31 g ai/ha
  Plant response rating (0 to 100), Wheat: 0
wheat; Postemergence, 62 g ai/ha
  Plant response rating (0 to 100), Wheat: 0
wheat; [11]
  Plant response rating, Wheat: 10
wheat; [12]
  Plant response rating, Wheat: 10
Wild oat; Postemergence, 31 g ai/ha
  Plant response rating (0 to 100), Oat, Wild: 0
Wild oat; [10]
  Plant response rating, Oat, Wild: 0
Wild oat; [11]
  Plant response rating, Oat, Wild: 0
Wild oat; [12]
  Plant response rating, Oat, Wild: 0
corn; Postemergence, 31 g ai/ha
  Plant response rating (0 to 100), Corn: 0
corn; Postemergence, 62 g ai/ha
  Plant response rating, Corn: 0
corn; Postemergence, 125 g ai/ha
  Plant response rating, Corn: 0
corn; Postemergence, 250 g ai/ha
  Plant response rating, Corn: 20
Woolly cupgrass; Postemergence, 31 g ai/ha
  Plant response rating (0 to 100), Cupgrass, Woolly: 0
Woolly cupgrass; Postemergence, 62 g ai/ha
  Plant response rating, Cupgrass, Woolly: 0
Woolly cupgrass; Postemergence, 125 g ai/ha
  Plant response rating, Cupgrass, Woolly: 0
Woolly cupgrass; Postemergence, 250 g ai/ha
  Plant response rating, Cupgrass, Woolly: 20
Goosegrass; Postemergence, 31 g ai/ha
  Plant response rating (0 to 100), Goosegrass: 0
Goosegrass; [10]
  Plant response rating, Goosegrass: 0
Goosegrass; [11]
  Plant response rating, Goosegrass: 10
Goosegrass; [12]
  Plant response rating, Goosegrass: 60
Yellow nutsedge; Postemergence, 31 g ai/ha
  Plant response rating (0 to 100), Nutsedge, Yellow: 0
Yellow nutsedge; [10]
  Plant response rating, Nutsedge, Yellow: 0
Yellow nutsedge; [11]
  Plant response rating, Nutsedge, Yellow: 0
Yellow nutsedge; [12]
  Plant response rating, Nutsedge, Yellow: 0
Common ragweed; Postemergence, 31 g ai/ha
  Plant response rating (0 to 100), Ragweed: 0
Common ragweed; Postemergence, 62 g ai/ha
  Plant response rating (0 to 100), Ragweed: 0
Common ragweed; [11]
  Plant response rating, Ragweed: 0
Common ragweed; [12]
  Plant response rating, Ragweed: 0
Umbrella sedge; [8]
  Plant response rating, Sedge, Umbrella: 75
Umbrella sedge; [9]
  Plant response rating, Sedge, Umbrella: 100
Duck salad; [8]
  Plant response rating, Ducksalad: 30
Duck salad; [9]
  Plant response rating, Ducksalad: 70

Source: patent US20100298141A1, “SUBSTITUTED PYRIDINE N-OXIDE HERBICIDES” (E. I. DU PONT DE NEMOURS AND COMPANY, priority 2007, published 2010)
